# Measured values from patent US8729082B2, “Substituted imidazoquinoxalines” (Bayer Intellectual Property GmbH, priority 2009, dated 2014).
# Molecular target: T1, human kinase Mps-1 (Homo sapiens, UniProt P33981)
# T1 construct: N-terminally GST-tagged human full length recombinant Mps-1 kinase; purchased Invitrogen, Karslruhe, Germany PV4071
# T1 sequence (P33981 1-857): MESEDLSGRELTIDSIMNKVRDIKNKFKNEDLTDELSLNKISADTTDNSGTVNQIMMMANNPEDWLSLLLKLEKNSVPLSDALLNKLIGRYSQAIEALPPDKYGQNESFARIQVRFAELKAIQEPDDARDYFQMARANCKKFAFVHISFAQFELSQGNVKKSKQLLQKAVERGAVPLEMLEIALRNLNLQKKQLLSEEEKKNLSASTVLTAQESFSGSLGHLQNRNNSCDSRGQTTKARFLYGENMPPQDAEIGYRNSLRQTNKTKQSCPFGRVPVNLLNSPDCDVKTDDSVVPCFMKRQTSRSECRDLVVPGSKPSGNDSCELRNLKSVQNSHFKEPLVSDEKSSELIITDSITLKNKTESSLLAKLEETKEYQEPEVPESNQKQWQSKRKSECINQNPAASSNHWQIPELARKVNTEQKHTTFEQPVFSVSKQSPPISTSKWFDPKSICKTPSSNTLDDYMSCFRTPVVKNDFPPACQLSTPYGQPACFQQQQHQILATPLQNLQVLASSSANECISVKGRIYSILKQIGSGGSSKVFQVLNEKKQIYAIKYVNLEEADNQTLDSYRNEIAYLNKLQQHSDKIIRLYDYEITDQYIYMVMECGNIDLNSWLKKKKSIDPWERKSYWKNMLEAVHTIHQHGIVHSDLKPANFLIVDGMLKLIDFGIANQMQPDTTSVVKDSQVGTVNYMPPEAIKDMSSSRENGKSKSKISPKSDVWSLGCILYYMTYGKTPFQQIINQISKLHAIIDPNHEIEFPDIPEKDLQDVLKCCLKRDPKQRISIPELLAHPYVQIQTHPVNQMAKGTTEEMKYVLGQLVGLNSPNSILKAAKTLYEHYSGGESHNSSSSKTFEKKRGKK
# Assay: Mps-1 kinase assay (HTRF)
# Assay type: biochemical
# Conditions: lowATP; mean; read-out: Mps1 lowATP mean IC50
# Description: The human kinase Mps-1 phosphorylates a biotinylated substrate peptide. Detection of the phosphorylated product is achieved by homogenous time-resolved fluorescence resonance energy transfer (HTRF) from Europium-labelled anti-phospho-Serine/Threonine antibody as donor to streptavidin labelled with cross-linked allophycocyanin (SA-XLent) as acceptor. Compounds are tested for their inhibition of the kinase activity.
# N-terminally GST-tagged human full length recombinant Mps-1 kinase (purchased from Invitrogen, Karslruhe, Germany, cat. no PV4071) was used. As substrate for the kinase reaction a biotinylated peptide of the amino-acid sequence PWDPDDADITEILG (C-terminus in amide form, purchased from Biosynthan GmbH, Berlin) was used.
# For the assay 50 nl of a 100-fold concentrated solution of the test compound in DMSO was pipetted into a black low volume 384 well microtiter plate (Greiner Bio-One, Frickenhausen, Germany), 2 μl of a solution of Mps-1 in assay buffer [0.1 mM sodium-ortho-vanadate, 10 mM MgCl2, 2 mM DTT, 25 mM Hepes pH 7.7, 0.05% BSA, 0.001% Pluronic F-127] were added and the mixture was incubated for 15 min at 22° C. to allow pre-binding of the test compounds to Mps-1 before the start of the kinase reaction. Then the kinase reaction was started by the addition of 3 μl of a solution of 16.7 μM ATP and 1.67 μM peptide in assay buffer and the resulting mixture was incubated for a reaction time of 60 min at 22° C. The concentration of Mps-1 in the assay was adjusted to the activity of the enzyme lot and was chosen appropriate to have the assay in the linear range, typical enzyme concentrations were in the range of about 1 nM (final conc. in the 5 μl assay volume). The reaction was stopped by the addition of 3 μl of a solution of HTRF detection reagents (100 mM Hepes pH 7.4, 0.1% BSA, 40 mM EDTA, 140 nM Streptavidin-XLent [#61GSTXLB, Fa. Cis Biointernational, Marcoule, France], 1.5 nM anti-phospho(Ser/Thr)-Europium-antibody [#AD0180, PerkinElmer LAS, Rodgau-Jügesheim, Germany].
# The resulting mixture was incubated 1 h at 22° C. to allow the binding of the phosphorylated peptide to the anti-phospho(Ser/Thr)-Europium-antibody. Subsequently the amount of phosphorylated substrate was evaluated by measurement of the resonance energy transfer from the Europium-labelled anti-phospho(Ser/Thr) antibody to the Streptavidin-XLent. Therefore, the fluorescence emissions at 620 nm and 665 nm after excitation at 350 nm was measured in a HTRF reader, e.g. a Rubystar (BMG Labtechnologies, Offenburg, Germany) or a Viewlux (PerkinElmer LAS, Rodgau-Jügesheim, Germany). The ratio of the emissions at 665 nm and at […] was taken as the measure for the amount of phosphorylated substrate. The data were normalised (enzyme reaction without inhibitor=0% inhibition, all other assay components but no enzyme=100% inhibition).
row,Compound,IC50 [nM]
1,"O=C(NC1CC1)c1ccc(-c2cnc3c(NCc4cccc(Cl)c4)nc4ccccc4n23)cc1 [Example 2-7, 4-{4-[(3-chlorobenzyl)amino]imidazo[1,2-a]quinoxalin-1-yl}-N-cyclopropylbenzamide]",222
2,"O=C(NC1CC1)c1ccc(-c2cnc3c(NCCc4ccccc4)nc4ccccc4n23)cc1 [Example 2-8, N-cyclopropyl-4-{4-[(2-phenylethyl)amino]imidazo[1,2-a]quinoxalin-1-yl}benzamide]",169
3,"O=C(NC1CC1)c1ccc(-c2cnc3c(Nc4ccccc4)nc4ccccc4n23)cc1 [Example 2-9, N-cyclopropyl-4-[4-(phenylamino)imidazo[1,2-a]quinoxalin-1-yl]benzamide]",545
4,"CCCCCNc1nc2ccccc2n2c(-c3ccc(C(=O)NC4CC4)cc3)cnc12 [Example 2-10, N-cyclopropyl-4-[4-(pentylamino)imidazo[1,2-a]quinoxalin-1-yl]benzamide]",92.4
5,"O=C(NC1CC1)c1ccc(-c2cnc3c(NCCCN4CCCC4=O)nc4ccccc4n23)cc1 [Example 2-11, N-cyclopropyl-4-(4-{[3-(2-oxopyrrolidin-1-yl)propyl]amino}imidazo[1,2-a]quinoxalin-1-yl)benzamide]",296
6,"COCCNc1nc2ccccc2n2c(-c3ccc(C(=O)NC4CC4)cc3)cnc12 [Example 2-12, N-cyclopropyl-4-{4-[(2-methoxyethyl)amino]imidazo[1,2-a]quinoxalin-1-yl}benzamide]",180
7,"COc1ccccc1CNc1nc2ccccc2n2c(-c3ccc(C(=O)NC4CC4)cc3)cnc12 [Example 2-13, N-cyclopropyl-4-{4-[(2-methoxybenzyl)amino]imidazo[1,2-a]quinoxalin-1-yl}benzamide]",334
8,"O=C(NC1CC1)c1ccc(-c2cnc3c(NCc4ccccc4F)nc4ccccc4n23)cc1 [Example 2-14, N-cyclopropyl-4-{4-[(2-fluorobenzyl)amino]imidazo[1,2-a]quinoxalin-1-yl}benzamide]",72.1
9,"O=C(NC1CC1)c1ccc(-c2cnc3c(NCc4ccc(F)cc4)nc4ccccc4n23)cc1 [Example 2-15, N-cyclopropyl-4-{4-[(4-fluorobenzyl)amino]imidazo[1,2-a]quinoxalin-1-yl}benzamide]",56.3
10,"O=C(NC1CC1)c1ccc(-c2cnc3c(NCc4ccccc4)nc4ccccc4n23)cc1 [Example 2-16, 4-[4-(benzylamino)imidazo[1,2-a]quinoxalin-1-yl]-N-cyclopropylbenzamide]",67.5
11,"COc1ccc(CCNc2nc3ccccc3n3c(-c4ccc(C(=O)NC5CC5)cc4)cnc23)cc1 [Example 2-17, N-cyclopropyl-4-(4-{[2-(4-methoxyphenyl)ethyl]amino}imidazo[1,2-a]quinoxalin-1-yl)benzamide]",565
12,"O=C(NC1CC1)c1ccc(-c2cnc3c(NCc4cccs4)nc4ccccc4n23)cc1 [Example 2-18, N-cyclopropyl-4-{4-[(thiophen-2-ylmethyl)amino]imidazo[1,2-a]quinoxalin-1-yl}benzamide]",46.6
13,"CCNc1nc2ccccc2n2c(-c3ccc(C(=O)NC4CC4)cc3)cnc12 [Example 2-19, N-cyclopropyl-4-[4-(ethylamino)imidazo[1,2-a]quinoxalin-1-yl]benzamide]",94
14,"CN(C)CCCNc1nc2ccccc2n2c(-c3ccc(C(=O)NC4CC4)cc3)cnc12 [Example 2-20, N-cyclopropyl-4-(4-{[3-(dimethylamino)propyl]amino}imidazo[1,2-a]quinoxalin-1-yl)benzamide]",744
15,"NS(=O)(=O)c1ccc(CCNc2nc3ccccc3n3c(-c4ccc(C(=O)NC5CC5)cc4)cnc23)cc1 [Example 2-21, N-cyclopropyl-4-(4-{[2-(4-sulfamoylphenyl)ethyl]amino}imidazo[1,2-a]quinoxalin-1-yl)benzamide]",48.1
16,"O=C(NC1CC1)c1ccc(-c2cnc3c(NCCc4cccc(F)c4)nc4ccccc4n23)cc1 [Example 2-22, N-cyclopropyl-4-(4-{[2-(3-fluorophenyl)ethyl]amino}imidazo[1,2-a]quinoxalin-1-yl)benzamide]",312
17,"O=C(NC1CC1)c1ccc(-c2cnc3c(NCC4CC4)nc4ccccc4n23)cc1 [Example 2-23, N-cyclopropyl-4-{4-[(cyclopropylmethyl)amino]imidazo[1,2-a]quinoxalin-1-yl}benzamide]",24.1
18,"O=C(NC1CC1)c1ccc(-c2cnc3c(NCCN4CCOCC4)nc4ccccc4n23)cc1 [Example 2-24, N-cyclopropyl-4-(4-{[2-(morpholin-4-yl)ethyl]amino}imidazo[1,2-a]quinoxalin-1-yl)benzamide]",127
19,"NS(=O)(=O)c1ccc(CNc2nc3ccccc3n3c(-c4ccc(C(=O)NC5CC5)cc4)cnc23)cc1 [Example 2-25, N-cyclopropyl-4-{4-[(4-sulfamoylbenzyl)amino]imidazo[1,2-a]quinoxalin-1-yl}benzamide]",160
20,"O=C(NC1CC1)c1ccc(-c2cnc3c(NCc4cccnc4)nc4ccccc4n23)cc1 [Example 2-26, N-cyclopropyl-4-{4-[(pyridin-3-ylmethyl)amino]imidazo[1,2-a]quinoxalin-1-yl}benzamide]",99.6
21,"O=C(NC1CC1)c1ccc(-c2cnc3c(NCCCc4ccccc4)nc4ccccc4n23)cc1 [Example 2-27, N-cyclopropyl-4-{4-[(3-phenylpropyl)amino]imidazo[1,2-a]quinoxalin-1-yl}benzamide]",282
22,"O=C(NC1CC1)c1ccc(-c2cnc3c(NCc4ccc5c(c4)OCO5)nc4ccccc4n23)cc1 [Example 2-28, 4-{4-[(1,3-benzodioxol-5-ylmethyl)amino]imidazo[1,2-a]quinoxalin-1-yl}-N-cyclopropylbenzamide]",61.4
23,"O=C(NC1CC1)c1ccc(-c2cnc3c(NCCOc4ccccc4)nc4ccccc4n23)cc1 [Example 2-29, N-cyclopropyl-4-{4-[(2-phenoxyethyl)amino]imidazo[1,2-a]quinoxalin-1-yl}benzamide]",443
24,"O=C(NC1CC1)c1ccc(-c2cnc3c(NCCc4ccncc4)nc4ccccc4n23)cc1 [Example 2-30, N-cyclopropyl-4-(4-{[2-(pyridin-4-yl)ethyl]amino}imidazo[1,2-a]quinoxalin-1-yl)benzamide]",121
25,"O=C(NC1CC1)c1ccc(-c2cnc3c(NCCCCN4CCCC4)nc4ccccc4n23)cc1 [Example 2-31, N-cyclopropyl-4-(4-{[4-(pyrrolidin-1-yl)butyl]amino}imidazo[1,2-a]quinoxalin-1-yl)benzamide]",321
26,"CS(=O)(=O)Nc1ccc(Nc2nc3ccccc3n3c(-c4ccc(C(=O)NC5CC5)cc4)cnc23)cc1 [Example 2-32, N-cyclopropyl-4-[4-({4-[(methylsulfonyl)amino]phenyl}amino)imidazo[1,2-a]quinoxalin-1-yl]benzamide]",202
